One assay has as its system U-87 MG. As to the kind of experiment: Antiproliferative activity against human U87MG cells assessed as reduction in cell viability after 72 hrs by SRB assay. The note with it: for IC50: u-87mg atcc; for pIC50: Homo sapiens, U-87 MG, 72 h, read-out: IC50. Format: functional, cell-based, U-87MG ATCC. In general terms: The SRB assay estimates cell density from bound dye.

In another assay the test system is Candida albicans. The experiment in a line: Antifungal activity against Candida albicans assessed as reduction in fungal growth incubated for 12 hrs by microdilution method. Format: functional. (In general: Broth dilution looks for growth in wells or tubes with falling amounts of substance.)
The next assay has as its system Staphylococcus aureus. The experiment in a line: Antibacterial activity against methicillin resistant Staphylococcus aureus assessed as reduction in bacterial growth incubated for 12 hrs by microdilution method. Type of assay: functional.
A further assay relates to Escherichia coli. The experiment in a line: Antibacterial activity against Escherichia coli assessed as reduction in bacterial growth incubated for 12 hrs by microdilution method. Type of assay: functional.
The next assay concerns U-251. The experiment in a line: Antiproliferative activity against human U251 cells assessed as reduction in cell viability after 72 hrs by SRB assay. Format: functional, cell-based. The note with it: for IC50: u-251; for pIC50: Homo sapiens, U-251, 72 h, read-out: IC50.

pIC50: −log10 of the molar value. ≈ marks a conversion by molar mass, not a printed value.

Take `CC1=C[C@@](C)(CO)O/C1=C\C(=O)CC1CC(=O)NC(=O)C1`: the IC50 entry in the assay on U-87 MG and with U-251 was “Not Active” each time. The figures for the MIC with Candida albicans, in the assay with Staphylococcus aureus and in the assay with Escherichia coli were 15 µg/mL (≈ 51.1 µM), 10 µg/mL (≈ 34.1 µM) and 8 µg/mL (≈ 27.3 µM), respectively.

On to `C[C@@H]1C[C@@](C)(CO)O/C1=C\C(=O)CC1CC(=O)NC(=O)C1`, for which the IC50 entry in the assay on U-87 MG and in the assay on U-251 was “Not Active” throughout. The minimal inhibitory concentration (MIC) with Candida albicans stood at 20 µg/mL (≈ 67.7 µM); in the assay on Staphylococcus aureus it was 11 µg/mL (≈ 37.2 µM); in the assay on Escherichia coli, 9 µg/mL (≈ 30.5 µM).

Take `C[C@H]1C[C@H]([C@H](O)CC2CC(=O)NC(=O)C2)C(=O)[C@@](C)(O)C1`: the IC50 entry in the assay on U-87 MG and in the assay on U-251 was “Not Active” throughout. In addition, the MIC turned out to be 12 µg/mL (≈ 40.4 µM) in the assay with Candida albicans, 11 µg/mL (≈ 37 µM) with Staphylococcus aureus and 9 µg/mL (≈ 30.3 µM) in the assay with Escherichia coli.

`C[C@H](CO)C[C@@]1(C)OC(CC2CC(=O)NC(=O)C2)=CC1=O`: the IC50 result in the assay on U-87 MG and in the assay with U-251 was “Not Active” each time. The figures for the minimum inhibitory concentration (MIC) in the assay with Candida albicans, with Staphylococcus aureus and with Escherichia coli were 8 µg/mL (≈ 27.1 µM), 10 µg/mL (≈ 33.9 µM) and 8 µg/mL (≈ 27.1 µM), respectively.

With `C[C@@H]1[C@H](O)[C@@H](C)/C=C/C=C/C=C/C=C/C=C/C=C/C=C/[C@H](O[C@@H]2O[C@H](C)[C@@H](O)[C@H](N)[C@@H]2O)C[C@@H]2O[C@](O)(C[C@@H](O)C[C@@H](O)[C@H](O)CC[C@@H](O)C[C@@H](O)CC(=O)O[C@H]1C)C[C@H](O)[C@H]2C(=O)O` [AMPHOTERICIN B], the MIC in the assay on Candida albicans came to 0.75 µg/mL (≈ 0.812 µM).

With `C[C@@H]1C[C@](C)(CO)O/C1=C\C(=O)CC1CC(=O)NC(=O)C1`, the IC50 result with U-87 MG and with U-251 was “Not Active” throughout. Besides, the MIC in the assay with Candida albicans amounted to 16 µg/mL (≈ 54.2 µM); in the assay with Staphylococcus aureus it was 9 µg/mL (≈ 30.5 µM); in the assay on Escherichia coli it was 9 µg/mL (≈ 30.5 µM).

For the molecule `C[C@@H]1C/C(=C/CC2CC(=O)NC(=O)C2)C(=O)[C@@H](C)[C@@H]1O`, the IC50 result in the assay on U-87 MG and with U-251 was “Not Active” in each case. The values for the MIC with Candida albicans, in the assay with Staphylococcus aureus and in the assay on Escherichia coli were 18 µg/mL (≈ 64.4 µM), 10 µg/mL (≈ 35.8 µM) and 10 µg/mL (≈ 35.8 µM), respectively.

`C[C@@H]1C[C@@H]([C@H](O)CC2CC(=O)NC(=O)C2)C(=O)[C@@H](C)[C@@H]1O`: the figures for the negative logarithm of the IC50 (pIC50) in the assay with U-87 MG and in the assay with U-251 were 5.42 and 5.82, respectively. The MIC came out at 15 µg/mL (≈ 50.4 µM) with Candida albicans, 9 µg/mL (≈ 30.3 µM) in the assay with Staphylococcus aureus and 10 µg/mL (≈ 33.6 µM) in the assay with Escherichia coli.

For `C[C@H](CO)C[C@@]1(C)OC(CC2(O)CC(=O)NC(=O)C2)=CC1=O`, the IC50 entry with U-87 MG and with U-251 was “Not Active” throughout. The MIC worked out at 20 µg/mL (≈ 64.2 µM) in the assay with Candida albicans, 9 µg/mL (≈ 28.9 µM) in the assay on Staphylococcus aureus and 10 µg/mL (≈ 32.1 µM) in the assay with Escherichia coli.

Regarding `C[C@H](CO)[C@@H]1OC(CC2CC(=O)NC(=O)C2)=CC(=O)[C@H]1C`, the IC50 result with U-87 MG and in the assay on U-251 was “Not Active” each time. The results for the MIC with Candida albicans, with Staphylococcus aureus and with Escherichia coli were 18 µg/mL (≈ 60.9 µM), 10 µg/mL (≈ 33.9 µM) and 12 µg/mL (≈ 40.6 µM), respectively.

On to `C[C@](O)(CO)C[C@@]1(C)OC(CC2CC(=O)NC(=O)C2)=CC1=O`, for which the IC50 result with U-87 MG and in the assay with U-251 was “Not Active” in each case. Besides, the minimal inhibitory concentration (MIC) with Candida albicans was found to be 18 µg/mL (≈ 57.8 µM); with Staphylococcus aureus it was 10 µg/mL (≈ 32.1 µM); in the assay with Escherichia coli, 12 µg/mL (≈ 38.5 µM).

Regarding `COc1cccc2c1C(=O)c1c(O)c3c(c(O)c1C2=O)C[C@@](O)(C(=O)CO)C[C@@H]3O[C@H]1C[C@H](N)[C@H](O)[C@H](C)O1` [DOXORUBICIN], the pIC50 in the assay with U-87 MG is 5.80; in the assay with U-251 it was 5.17.

For the molecule `CN[C@H](CC(C)C)C(=O)N[C@H]1C(=O)N[C@@H](CC(N)=O)C(=O)N[C@H]2C(=O)N[C@H]3C(=O)N[C@H](C(=O)N[C@H](C(=O)O)c4cc(O)cc(O)c4-c4cc3ccc4O)[C@H](O)c3ccc(c(Cl)c3)Oc3cc2cc(c3O[C@@H]2O[C@H](CO)[C@@H](O)[C@H](O)[C@H]2O[C@H]2C[C@](C)(N)[C@H](O)[C@H](C)O2)Oc2ccc(cc2Cl)[C@H]1O` [VANCOMYCIN], the MIC in the assay with Staphylococcus aureus stood at 0.2 µg/mL (≈ 0.138 µM).

As to GENTAMICIN, the minimal inhibitory concentration (MIC) in the assay with Escherichia coli amounted to 1.25 µg/mL.

In the case of `C[C@H]1C[C@@](C)(O)C[C@@H]([C@H](O)CC2CC(=O)NC(=O)C2)C1=O`, the pIC50 in the assay with U-87 MG was 6.66; in the assay with U-251, 7.30. The minimum inhibitory concentration (MIC) with Candida albicans was 18 µg/mL (≈ 60.5 µM); in the assay on Staphylococcus aureus it was 10 µg/mL (≈ 33.6 µM); in the assay on Escherichia coli, 10 µg/mL (≈ 33.6 µM).

Broadly, the MIC is the least concentration at which growth counts as inhibited. Broadly, the pIC50 is −log10 of the IC50, conventionally taken in molar units.

The values are drawn from ChEMBL document CHEMBL4414606, “Bioactive Streptoglutarimides A-J from the Marine-Derived Streptomyces sp. ZZ741” (J Nat Prod, 2019).
